Converted amounts (≈) assume the structure as drawn. The source made the active and inactive calls. The rule behind the calls is not given here.
How the values were obtained:
[1] = test system: Mycobacterium tuberculosis; test: Antimycobacterial activity against Mycobacterium tuberculosis by broth microdilution method; format: functional, organism-based
[2] = test system: Escherichia coli; test: Antimicrobial activity against Escherichia coli by disc-diffusion method; format: functional, organism-based
[3] = test system: Pseudomonas aeruginosa; test: Antimicrobial activity against Pseudomonas aeruginosa by disc-diffusion method; format: functional, organism-based
[4] = test system: Bacillus subtilis; test: Antimicrobial activity against Bacillus subtilis ATCC 6633 by tube dilution method; format: functional
[5] = test system: Staphylococcus aureus; test: Antimicrobial activity against Staphylococcus aureus ATCC 6538 by tube dilution method; format: functional
[6] = test system: Enterococcus faecalis; test: Antimicrobial activity against Enterococcus faecalis ATCC 29212 by tube dilution method; format: functional
[7] = test system: Staphylococcus epidermidis; test: Antimicrobial activity against Staphylococcus epidermidis ATCC 12228 by tube dilution method; format: functional
[8] = test system: Bacillus subtilis; test: Antimicrobial activity against Bacillus subtilis ATCC 6633 by disc-diffusion method; format: functional
[9] = test system: Proteus mirabilis; test: Antimicrobial activity against Proteus mirabilis by disc-diffusion method; format: functional, organism-based
[10] = test system: Klebsiella pneumoniae; test: Antimicrobial activity against Klebsiella pneumoniae by disc-diffusion method; format: functional, organism-based
[11] = test system: Staphylococcus epidermidis; test: Antimicrobial activity against Staphylococcus epidermidis ATCC 12228 by disc-diffusion method; format: functional
[12] = test system: Enterococcus faecalis; test: Antimicrobial activity against Enterococcus faecalis ATCC 29212 by disc-diffusion method; format: functional
[13] = test system: Candida albicans; test: Antimicrobial activity against Candida albicans by disc-diffusion method; format: functional, organism-based
[14] = test system: Staphylococcus aureus; test: Antimicrobial activity against Staphylococcus aureus ATCC 6538 by disc-diffusion method; format: functional

SMILES	Activity [1]	inhibition zone (IZ) [2]	inhibition zone (IZ) [3]	MIC [4] [µg/mL]	MIC [5] [µg/mL]	MIC [6] [µg/mL]	MIC [7] [µg/mL]	inhibition zone (IZ) [8] [mm]	inhibition zone (IZ) [9]	inhibition zone (IZ) [10]	inhibition zone (IZ) [11]	inhibition zone (IZ) [12]	inhibition zone (IZ) [13]	inhibition zone (IZ) [14]
COc1cc2c(ccc3c(C)c(C)ccc32)cc1C(C)C	Active													
CC(C)C1=C(O)C(=O)C2=C(C1=O)[C@H](O)C[C@H]1C(C)(C)CCC[C@]21C [HORMINONE]		inactive	inactive	1.5 (≈ 4.51 µM)	6.5 (≈ 19.6 µM)	14 (≈ 42.1 µM)	1.5 (≈ 4.51 µM)	>7	inactive	inactive	>7 mm	>7 mm	inactive	>7 mm
COc1cc2c3c(ccc2c(C)c1C)C=C(C(C)C)C(=O)C3=O	Active													
COc1cc2c(cc1C(C)C)CC[C@H]1C(C)(C)CCC[C@]21C(=O)O		inactive	inactive	6.5 (≈ 19.7 µM)				>7	inactive	inactive	inactive	inactive	inactive	inactive
CC(=O)O[C@@H]1C[C@H]2C(C)(C)CCC[C@]2(C)C2=C1C(=O)C(C(C)C)=C(O)C2=O		inactive	inactive	3 (≈ 8.01 µM)	10 (≈ 26.7 µM)		6 (≈ 16 µM)	>7	inactive	inactive	>7 mm	inactive	inactive	>7 mm
Cc1c(O)cc2c3c(ccc2c1C)C=C(C(C)C)C(=O)C3=O	Active													
CC(C)c1cc2c(cc1O)[C@@]1(C)CCCC(C)(C)[C@@H]1CC2 [FERRUGINOL]				> 250	> 250		> 250	>7			>7 mm			>7 mm

Source: ChEMBL document CHEMBL1150826, “Antibacterial diterpenes from the roots of Salvia blepharochlaena” (2001)
